{"source": "ChEMBL document CHEMBL1149057", "about": "“Mucus synthesis and sulfhydryl groups in cytoprotection mediated by dehydroleucodine, a sesquiterpene lactone” (1994)", "key": {"[1]": {"system": "Rattus norvegicus", "assay": "Gastroprotective effect in fasted Wistar rat assessed as increase in rate of gastric mucus glycoprotein synthesis at 40 mg/kg, po after 1 hr by N-acetyl-D-[1-3H]glucosamine incorporation method relative to control", "type": "functional, Gastric mucosa"}, "[2]": {"system": "Rattus norvegicus", "assay": "Gastroprotective effect against ethanol-induced gastric damage in fasted Wistar rat assessed as extent of mucosal damage at 40 mg/kg, po pretreated 30 mins before ethanol challenge in presence of indomethacin pretreated 60 mins before ethanol challenge", "type": "functional, Stomach"}, "[3]": {"organism": "Rattus norvegicus", "assay": "Gastroprotective effect in pylorus-ligated Wistar rat assessed as inhibition of acid secretion", "type": "functional, organism-based"}, "[4]": {"system": "Rattus norvegicus", "assay": "Gastroprotective effect against ethanol-induced gastric damage in fasted Wistar rat assessed as extent of mucosal damage at 40 mg/kg, po pretreated 30 mins before ethanol challenge measured after 60 mins"}, "[5]": {"system": "Rattus norvegicus", "assay": "Gastroprotective effect against ethanol-induced gastric damage in fasted Wistar rat assessed as extent of mucosal damage at 40 mg/kg, po pretreated 30 mins before ethanol challenge in presence of N-ethylmaleimide pretreated 60 mins before ethanol challenge"}, "[6]": {"system": "Rattus norvegicus", "assay": "Gastroprotective effect against ethanol-induced gastric damage in fasted Wistar rat assessed as extent of mucosal damage at 40 mg/kg, po pretreated 30 mins before ethanol challenge in presence of N-ethylmaleimide and indomethacin pretreated 60 mins before ethanol challenge"}}, "note": "Calls of active or inactive are those of the source. The rule behind the calls is not given here."}
{"smiles": "C=C1C(=O)O[C@@H]2[C@H]3C(C)=CC(=O)C3=C(C)CC[C@@H]12", "note": "[DEHYDROLEUCODIN]", "values": [{"measurement": "fold change (FC)", "setting": "[1]", "result": 7}, {"measurement": "UI", "setting": "[2]", "result": 1.2}, {"measurement": "Activity", "setting": "[3]", "result": "inactive"}, {"measurement": "UI", "setting": "[4]", "result": 0.3}, {"measurement": "UI", "setting": "[5]", "result": 2.4}, {"measurement": "UI", "setting": "[6]", "result": 3.3}]}
